Experimental data as given in US12162892B2, “CD16a binding agents and uses thereof” (KLEO PHARMACEUTICALS, INC., priority 2018, dated 2024).
Several values for one entry are separate records, joined by “and”; a condition that tells them apart may be missing. Identical values can stand only once.

Experiments:
[1] = target: T1, CD16a158V (Homo sapiens, UniProt P08637, F176V); assay: Biotinylated Ligand ELISA Assay; format: binding; conditions: Biotinylated CD16a protein at 10 nM
Protocol: (§1) Coat ELISA plates (Costar 3922) using Neutravidin (Thermo 31000) at 5 μg/ml (100 μl/well) for 1 hour at 37° C. Plates were washed 4 times with PBST (PBS, 0.05% Tween 20-200 μl, 1 minute/wash) then blocked using 200 μl 5% bovine serum albumin (BSA, Heat Shock, Fraction V-American Bio AB01088-00100) in PBST for 2 hours at 25° C. with moderate shaking. BSA was removed and plates were washed. Biotinylated ligands diluted in PBSTB (PBST+0.1% BSA) were then added (100 μl/well) and incubated for 1 hour at 25° C. with gentle shaking. Ligands were removed and plates were washed. Any remaining unoccupied neutravidin binding sites were blocked by adding 100 μM Biotin (Fisher BP232-1) (100 μl/well) and incubated for 1 hour at 25° C. with gentle shaking. Plates were then washed. […] Protein was removed and plates were washed. Streptavidin-HRP (Invitrogen 434323) diluted 1:5000 in PBSTB was added (100 μl/well) and incubated for 1 hour at 25° C. with gentle shaking. Wash plates. Substrate (Super Signal ELISA Pico Chemiluminescent Substrate-Thermo 37069) was added (100 μl/well) and plates were incubated for 5 minutes at 25° C. with gentle shaking. Luminescence was then measured on the Biotek Synergy H1 microplate reader.

[2] = tested on: primary monocytes; assay: ADCP assay using fresh primary monocytes; format: cell-based, human; conditions: beads loaded with test compound at 50 uM; 37C for 18 hrs
Protocol: (§2) Biotinylated fluorescent beads (Invitrogen, cat #P35372) were thoroughly mixed by vortexing for 1 min. Ten microliters of supplied bead suspension per treatment type were dispensed in Eppendorf tubes, and washed with 1 ml PBS […], then re-suspended in 500 uL of 1% BSA in PBS. Test compounds were added to bead suspensions to a final concentration of 50 uM, and biotinylated human IgG whole molecule (Rockland 009-0602) final concentration of 20 ug/mL.
(§3) Tubes were incubated at room temperature for 1 hr on a rocking platform.
(§4) Following incubation, beads were pelleted in a microcentrifuge at 12,000 g for 5 minutes at room temperature. Supernatants were carefully aspirated and beads were washed 5 times by resuspending in 1 ml of PBS 1% BSA, and centrifuging as described above. Finally, beads were resuspended in 500 ul of PBS 1% BSA and used in ADCP assay.
PBMC, freshly isolated from whole blood (Bioreclamation IVT0) using Ficoll-Paque density centrifugation were resuspended in serum-free, supplemented RPMI at 2×10^6 cells/mL.
Ten milliliters of the resulting cell suspension was seeded into 75-cm^2 tissue culture flask (Denville Scientific TC9341) and incubated 2-3 hr at 37° C. 5% CO2 to allow cell adhesion. Following incubation, media was decanted and surface of the flask was carefully washed twice, each time with 10 ml serum-free, supplemented RPMI to remove any residual non-adherent cells. To remove adherent cells, 10 mL of ice-cold 2.5 mM EDTA/PBS solution was added for 10 min on ice. Cells were transferred to a 15-ml conical tube and centrifuge 10 min at 300×g, room temperature, to remove the EDTA/PBS solution. Monocytes were then resuspended in RPMI 10% FCS at 5×10^5 cells/mL to be used in ADCP assay. Monocyte purity was assessed by staining cells with antibodies to human CD3 FITC (Biolegend 300306), CD19 PeCy7 (Biolegend 302216), CD14 BV421 (BD Biosciences, 565283), and CD16 (Biolegend 302046).
(§5) Monocytes or THP-1 cells (TIB-202 ATCC) were seeded into 96 well round bottom 96 well plates at the density of 10^5 cells per well in 200 ul, and 10 uL of fluorescent bead suspension prepared as described above was added to each well. Well contents were mixed by pipetting up and down using a multichannel pipet, and plates were incubated at 37C for 18 hrs. After incubation, well contents were transferred into flat bottom black 96 well plates (Costar #3358) and centrifuged for 2 minutes at 300 g to allow for better visualization of the cells. Images were taken using Zoe fluorescent cell imager (Biorad).

[3] = target: T2, CD16a158F (Homo sapiens, UniProt P08637); assay: Biotin ELISA, interaction with various receptors (Example 55); format: binding; conditions: three replicate values per compound
T2 sequence (P08637 17-208 limits assumed): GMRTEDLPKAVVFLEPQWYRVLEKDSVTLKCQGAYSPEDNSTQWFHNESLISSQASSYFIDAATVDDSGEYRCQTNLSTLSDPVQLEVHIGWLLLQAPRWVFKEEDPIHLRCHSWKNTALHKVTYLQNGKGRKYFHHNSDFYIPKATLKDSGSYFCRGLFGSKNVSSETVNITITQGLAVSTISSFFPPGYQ
Protocol: as §1
(§6) Using similar methods as Examples 47 or 53, interactions with a number of receptors were measured. In some embodiments, “stock” is antibody only, and “control” is an antibody that went through the same procedure except using DMSO only as opposed to a compound. When contacted with targeting moieties such as antibodies in the Examples, compounds, e.g., I-95, I-96, etc. can react through their reactive groups

[4] = target: T1, CD16a158V; assay: as above; format: binding; conditions: three replicate values per compound
Protocol: as §1, §6

[5] = target: T3, CD32a H167 (Homo sapiens, UniProt P12318); assay: as above; format: binding; conditions: three replicate values per compound
T3 sequence (P12318 36-218 limits assumed): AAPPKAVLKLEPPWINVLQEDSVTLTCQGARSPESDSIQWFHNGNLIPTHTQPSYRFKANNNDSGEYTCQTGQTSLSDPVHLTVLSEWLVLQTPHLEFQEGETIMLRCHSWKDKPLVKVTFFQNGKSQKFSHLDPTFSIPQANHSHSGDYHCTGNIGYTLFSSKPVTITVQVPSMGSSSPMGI
Protocol: as §1, §6

[6] = tested on: CD32a-R167; assay: as above; format: binding; conditions: three replicate values per compound
Protocol: as §1, §6

[7] = target: T4, CD32b (Homo sapiens, UniProt P31994); assay: as above; format: binding; conditions: three replicate values per compound
T4 sequence (P31994 43-310): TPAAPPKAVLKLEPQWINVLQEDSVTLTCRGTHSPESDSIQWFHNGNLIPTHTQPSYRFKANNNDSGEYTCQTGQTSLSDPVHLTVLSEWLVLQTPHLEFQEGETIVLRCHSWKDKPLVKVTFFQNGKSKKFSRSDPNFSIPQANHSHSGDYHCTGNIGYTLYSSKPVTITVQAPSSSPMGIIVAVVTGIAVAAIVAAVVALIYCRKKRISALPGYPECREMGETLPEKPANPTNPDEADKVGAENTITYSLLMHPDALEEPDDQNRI
Protocol: as §1, §6

[8] = target: CD3ed (Homo sapiens, UniProt P04234+P07766); assay: as above; format: binding; conditions: three replicate values per compound
CD3ed, sequence (P07766 23-126 limits assumed): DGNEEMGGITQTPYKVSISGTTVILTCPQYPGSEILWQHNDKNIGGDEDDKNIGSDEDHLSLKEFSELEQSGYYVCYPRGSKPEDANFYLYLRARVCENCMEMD
CD3ed, sequence (P04234 22-105 limits assumed): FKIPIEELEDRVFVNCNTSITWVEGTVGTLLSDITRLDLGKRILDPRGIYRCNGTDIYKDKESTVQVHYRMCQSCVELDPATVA
Protocol: as §1, §6

[9] = target: CD64 (Homo sapiens, UniProt P12314); assay: as above; format: binding; conditions: three replicate values per compound
CD64, sequence (P12314 16-374): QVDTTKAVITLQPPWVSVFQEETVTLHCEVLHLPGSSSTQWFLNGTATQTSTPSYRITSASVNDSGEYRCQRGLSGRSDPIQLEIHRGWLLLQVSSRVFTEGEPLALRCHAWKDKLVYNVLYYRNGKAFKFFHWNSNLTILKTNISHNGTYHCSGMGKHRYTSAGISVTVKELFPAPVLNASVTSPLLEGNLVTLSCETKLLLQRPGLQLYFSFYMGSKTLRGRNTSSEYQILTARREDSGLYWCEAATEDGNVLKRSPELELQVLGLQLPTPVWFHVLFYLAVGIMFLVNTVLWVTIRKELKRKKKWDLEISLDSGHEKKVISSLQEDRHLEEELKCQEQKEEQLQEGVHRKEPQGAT
Protocol: as §1, §6

[10] = Biotin ELISA, No Protein (Example 55); format: binding; conditions: three replicate values per compound
Protocol: as §1, §6

[11] = target: T2, CD16a158F; assay: Biotinylated Ligand ELISA Assay; format: binding; parameters: purchased Acro Biosystems CDA-H82E8; conditions: Biotinylated CD16a protein at 10 nM
Protocol: as §1

[12] = tested on: CD16a negative THP1 cells; assay: ADCP assay using THP-1 cells; format: cell-based; conditions: beads loaded with test compound at 50 uM; 37C for 18 hrs
Protocol: as §2, §3, §4, §5

T1 sequence (P08637 17-208 F176V): as the sequence (P08637 17-208 limits assumed) above, with F160V counted along it

Compound	Biotinylated Ligand ELISA-CD16a158V Binding (RLU) [1]	ACDP (primary monocytes)-normalized phagocytosis score [2]	Biotin ELISA Results CD16a-158F [3]	Biotin ELISA Results CD16a-158V [4]	Biotin ELISA Results CD32a-H167 [5]	Biotin ELISA Results CD32a-R167 [6]	Biotin ELISA Results CD32b [7]	Biotin ELISA Results CD3ed [8]	Biotin ELISA Results CD64 [9]	Biotin ELISA Results No Protein [10]	Biotinylated Ligand ELISA-CD16a158F Binding (RLU) [11]	ACDP (CD16a negative THP1 cells)-normalized phagocytosis score [12]
O=C(CCCC[C@@H]1SC[C@@H]2NC(=O)N[C@@H]21)NCCOCCOCCOCCOCCOCCOCCOCCOCCn1cc(-c2cccc(NC(=O)N3CCC4(CC3)NC(=O)N(Cc3ccccc3)C4=O)c2)nn1 [Compound I-16, N-{3-[1-(26-{5-[(3aS,4S,6aR)-2-oxo-hexahydro-1H-thieno[3,4-d]imidazol-4-yl]pentanamido}-3,6,9,12,15,18,21,24-octaoxahexacosan-1-yl)-1H-1,2,3-triazol-4-yl]phenyl}-3-benzyl-2,4-dioxo-1,3,8-triazaspiro[4.5]decane-8-carboxamide]	D (a relative luminescence value (RLU) of 1-1,000)	B (a normalized phagocytosis score of 1.5-2.0)	19818 and 20544 and 2349*	2543 and 5076 and 2414	3600 and 3315 and 3632	8460 and 31058 and 13897	3985 and 5047 and 3438	3087 and 4575 and 2480	40426 and 53812 and 48052	4636 and 2801 and 5055	D (a relative luminescence value (RLU) of 1-1,000)	–
O=C(CCCC[C@@H]1SC[C@@H]2NC(=O)N[C@@H]21)NCCOCCOCCOCCOCCOCCOCCOCCOCCn1cc(-c2ccc(NC(=O)N3CCC(N4CCN(Cc5ccccc5)C4=O)CC3)cc2)nn1 [Compound I-15, N-{4-[1-(26-{5-[(3aS,4S,6aR)-2-oxo-hexahydro-1H-thieno[3,4-d]imidazol-4-yl]pentanamido}-3,6,9,12,15,18,21,24-octaoxahexacosan-1-yl)-1H-1,2,3-triazol-4-yl]phenyl}-4-(3-benzyl-2-oxoimidazolidin-1-yl)piperidine-1-carboxamide]	B (a relative luminescence value (RLU) of 10,000-100,000)	–	34842 and 7323* and 23569	3136 and 3515 and 1518	5263 and 6063 and 4354	11818 and 37679* and 11737	10786 and 29882* and 8282	7926 and 1921 and 46693*	43288 and 127129* and 49818	3931 and 5958 and 23315*	B (a relative luminescence value (RLU) of 10,000-100,000)	–
O=C(CCCC[C@@H]1SC[C@@H]2NC(=O)N[C@@H]21)NCCOCCOCCOCCOCCOCCOCCOCCOCCn1cc(-c2ccc(NC(=O)N3CCC4(CC3)NC(=O)N(c3ccccc3)C4=O)cc2)nn1 [Compound I-18, N-{4-[1-(26-{5-[(3aS,4S,6aR)-2-oxo-hexahydro-1H-thieno[3,4-d]imidazol-4-yl]pentanamido}-3,6,9,12,15,18,21,24-octaoxahexacosan-1-yl)-1H-1,2,3-triazol-4-yl]phenyl}-2,4-dioxo-3-phenyl-1,3,8-triazaspiro[4.5]decane-8-carboxamide]	D (a relative luminescence value (RLU) of 1-1,000)	–	–	–	–	–	–	–	–	–	D (a relative luminescence value (RLU) of 1-1,000)	B (a normalized phagocytosis score of 1.5-2.0)
O=C(CCCC[C@@H]1SC[C@@H]2NC(=O)N[C@@H]21)NCCOCCOCCOCCOCCOCCOCCOCCOCCn1cc(-c2ccc(OCC(=O)N3CCC(N4CC(=O)N(c5ccccc5)C4=O)CC3)cc2)nn1 [Compound I-19, 5-[(3aS,4S,6aR)-2-oxo-hexahydro-1H-thieno[3,4-d]imidazol-4-yl]-N-{26-[4-(4-{2-[4-(2,4-dioxo-3-phenylimidazolidin-1-yl)piperidin-1-yl]-2-oxoethoxy}phenyl)-1H-1,2,3-triazol-1-yl]-3,6,9,12,15,18,21,24-octaoxahexacosan-1-yl}pentanamide]	D (a relative luminescence value (RLU) of 1-1,000)	–	−1097 and −1078 and −689	−544 and −988 and −964	276 and 696 and −362	2048 and −50 and 349	2072 and 737 and 1622	1852 and 1310 and 797	40706 and 42386 and 41814	1266 and 122 and 3990	D (a relative luminescence value (RLU) of 1-1,000)	–
